Test results published in patent US20250179073A1, “TRICYCLIC HETEROCYCLE COMPOUNDS AS IAP ANTAGONISTS” (Ascentage Pharma (Suzhou) Co., Ltd., priority 2022, published 2025).

Assays:
[1] = test system: MDA-MB-231 cells; assay: Cell proliferation assay (CellTiter-Glo), MDA-MB-231; type: cell-based; settings: Homo sapiens, MDA-MB-231, 72 h, 72 h treatment, Celltiter-Glo luminescence
Summary of the method: (§1)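 Compounds tested over ten concentrations ([…]) for 72 h on EVSA-T cells in MEM/10% FBS and MDA-MB-231 cells in RPMI-1640/10% FBS, seeded at 10000/well. Luminescent CellTiter-Glo readout; IC50 fitted after normalisation to controls.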

[2] = test system: EVSA-T cells; assay: Cell proliferation assay (CellTiter-Glo), EVSA-T; type: cell-based; settings: Homo sapiens, EVSA-T, 72 h, 72 h treatment, Celltiter-Glo luminescence
Summary of the method: as §1

Row | Compound | IC50 [1] [nM] | IC50 [2] [nM]
1 | C[C@@H]1CN(CC(=O)N2CC(C)(C)c3c2cc([C@H](O)c2ccc(F)cc2)c2ncnn32)[C@@H](CN2CCOC[C@H]2C)CN1 [Compound 134, 1-(4-((R)-(4-fluorophenyl)(hydroxy)methyl)-8,8-dimethyl-7,8-dihydro-6H-pyrrolo[2,3-e][1,2,4]triazolo[1,5-a]pyridin-6-yl)-2-((2R,5R)-5-methyl-2-(((R)-3-methylmorpholino)methyl)piperazin-1-yl)ethan-1-one] | 190 | 83
2 | C[C@@H]1CN(CC(=O)N2CC(C)(C)c3c2cc(Cc2ccc(F)cc2O)c2ncnn32)[C@@H](CN2CCOC[C@H]2C)CN1 [Compound 42, 1-(4-(4-fluoro-2-hydroxybenzyl)-8,8-dimethyl-7,8-dihydro-6H-pyrrolo[2,3-e][1,2,4]triazolo[1,5-a]pyridin-6-yl)-2-((2R,5R)-5-methyl-2-(((R)-3-methylmorpholino)methyl)piperazin-1-yl)ethan-1-one] | 100 | 13
3 | C[C@@H]1CN(CC(=O)N2CC(C)(C)c3c2cc(Cc2ccc(F)cc2)c2nn(C[C@H]4COCCO4)c(=O)n32)[C@@H](CN2CCOC[C@H]2C)CN1 [Compound 237, 2-(((S)-1,4-dioxan-2-yl)methyl)-4-(4-fluorobenzyl)-8,8-dim ethyl-6-(2-((2R,5R)-5-methyl-2-(((R)-3-methylmorpholino)methyl)piperazin-1-yl)acetyl)-2,6,7,8-tetrahydro-1H-pyrrolo[2,3-e][1,2,4]triazolo[4,3-a]pyridin-1-one] | 46 | 1.5
4 | C[C@@H]1CN(CC(=O)N2CC(C)(C)c3c2cc(Cc2ccc(F)cc2)c2nn(Cc4cncnc4)c(=O)n32)[C@@H](CN2CCOC[C@H]2C)CN1 [Compound 236, 4-(4-fluorobenzyl)-8,8-dimethyl-6-(2-((2R,5R)-5-methyl-2-(((R)-3-methylmorpholino)methyl)piperazin-1-yl)acetyl)-2-(pyrimidin-5-ylmethyl)-2,6,7,8-tetrahydro-1H-pyrrolo[2,3-e][1,2,4]triazolo[4,3-a]pyridin-1-one] | 87 | 0.7
5 | C[C@@H]1CN(CC(=O)N2CC(C)(C)c3c2cc(Cc2ccc(F)cc2)c2nc(N4CCN(C)C4=O)nn32)[C@@H](CN2CCOC[C@H]2C)CN1 [Compound 235, 1-(4-(4-fluorobenzyl)-8,8-dimethyl-6-(2-((2R,5R)-5-methyl-2-(((R)-3-methylmorpholino)methyl)piperazin-1-yl)acetyl)-7,8-dihydro-6H-pyrrolo[2,3-e][1,2,4]triazolo[1,5-a]pyridin-2-yl)-3-methylimidazolidin-2-one] | 38 | 1.3
6 | C[C@@H]1CN(CC(=O)N2CC(C)(C)c3c2cc(Cc2ccc(F)cc2)c2nn(Cc4cccc(F)n4)c(=O)n32)[C@@H](CN2CCOC[C@H]2C)CN1 [Compound 219, 4-(4-fluorobenzyl)-2-((6-fluoropyridin-2-yl)methyl)-8,8-di methyl-6-(2-((2R,5R)-5-methyl-2-(((R)-3-methylmorpholino)methyl)piperazin-1-yl)acetyl)-2,6,7,8-tetrahydro-1H-pyrrolo[2,3-e][1,2,4]triazolo[4,3-a]pyridin-1-one] | 47 | 2
7 | C[C@@H]1CN(CC(=O)N2CC(C)(C)c3c2cc(Cc2ccc(F)cc2)c2nn(C4COC4)c(=O)n32)[C@@H](CN2CCOC[C@H]2C)CN1 [Compound 210, 4-(4-fluorobenzyl)-8,8-dimethyl-6-(2-((2R,5R)-5-methyl-2-(((R)-3-methylmorpholino)methyl)piperazin-1-yl)acetyl)-2-(oxetan-3-yl)-2,6,7,8-tetrahydro-1H-pyrrolo[2,3-e][1,2,4]triazolo[4,3-a]pyridin-1-one] | 33 | 3
8 | C[C@@H]1CN(CC(=O)N2CC(C)(C)c3c2cc(Cc2cccc(F)c2)c2ncnn32)[C@@H](CN2CCOC[C@H]2C)CN1 [Compound 39, 1-(4-(3-fluorobenzyl)-8,8-dimethyl-7,8-dihydro-6H-pyrrolo[2,3-e][1,2,4]triazolo[1,5-a]pyridin-6-yl)-2-((2R,5R)-5-methyl-2-(((R)-3-methylmorpholino)methyl)piperazin-1-yl)ethan-1-one] | 150 | 34
9 | C[C@@H]1CN(CC(=O)N2CC(C)(C)c3c2cc(Cc2ccc(F)cc2)c2ncnn32)[C@@H](CN2CCN(CC(F)(F)F)C[C@H]2C)CN1 [Compound 63, 1-(4-(4-fluorobenzyl)-8,8-dimethyl-7,8-dihydro-6H-pyrrolo[2,3-e][1,2,4]triazolo[1,5-a]pyridin-6-yl)-2-((2R,5R)-5-methyl-2-(((R)-2-methyl-4-(2,2,2-trifluoroethyl)piperazin-1-yl)methyl)piperazin-1-yl)ethan-1-one] | 28 | 3
10 | C[C@@H]1CN(CC(=O)N2CC(C)(C)c3c2cc(Cc2ccc(F)cc2)c2nn(C4CC(O)C4)c(=O)n32)[C@@H](CN2CCOC[C@H]2C)CN1 (stereo partly drawn) [Compound 271, 4-(4-fluorobenzyl)-2-(3-hydroxycyclobutyl)-8,8-dimethyl-6-(2-((2R,5R)-5-methyl-2-(((R)-3-methylmorpholino)methyl)piperazin-1-yl)acetyl)-2,6,7,8-tetrahydro-1H-pyrrolo[2,3-e][1,2,4]triazolo[4,3-a]pyridin-1-one] | 22 | 2.2

Now from value to compound, other results behind:

Row | IC50 [1] [nM] | Compound | IC50 [2] [nM]
11 | 16 | C[C@@H]1CN(CC(=O)N2CC(C)(C)c3c2cc(Cc2ccc(F)cc2)c2nc(N)nn32)[C@@H](CN2CCOC[C@H]2C)CN1 [Example 30, 1-(2-amino-4-(4-fluorobenzyl)-8,8-dimethyl-7,8-dihydro-6H-pyrrolo[2,3-e][1,2,4]triazolo[1,5-a]pyridin-6-yl)-2-((2R,5R)-5-methyl-2-(((R)-3-methylmorpholino)methyl)piperazin-1-yl)ethan-1-one] | 3
12 | 100 | CC(=O)Nc1nc2c(Cc3ccc(F)cc3)cc3c(n2n1)C(C)(C)CN3C(=O)CN1C[C@@H](C)NC[C@@H]1CN1CCOC[C@H]1C [Example 29, N-(4-(4-fluorobenzyl)-8,8-dimethyl-6-(2-((2R,5R)-5-methyl-2-(((R)-3-methylmorpholino)methyl)piperazin-1-yl)acetyl)-7,8-dihydro-6H-pyrrolo[2,3-e][1,2,4]triazolo[1,5-a]pyridin-2-yl)acetamide] | 10
13 | 230 | Cc1nc(C#N)c2c(Cc3ccc(F)cc3)cc3c(n12)C(C)(C)CN3C(=O)CN1C[C@@H](C)NC[C@@H]1CN1CCOC[C@H]1C [Compound 130, 4-(4-fluorobenzyl)-1,8,8-trimethyl-6-(2-((2R,5R)-5-methyl-2-(((R)-3-methylmorpholino)methyl)piperazin-1-yl)acetyl)-7,8-dihydro-6H-imidazo[1,5-a]pyrrolo[2,3-e]pyridine-3-carbonitrile] | 37
14 | 110 | C[C@@H]1CN(CC(=O)N2CC(C)(C)c3c2cc(Cc2ccc(F)cc2)c2nc(C(N)=O)cn32)[C@@H](CN2CCOC[C@H]2C)CN1 [Example 20, 4-(4-fluorobenzyl)-8,8-dimethyl-6-(2-((2R,5R)-5-methyl-2-(((R)-3-methylmorpholino)methyl)piperazin-1-yl)acetyl)-7,8-dihydro-6H-imidazo[1,2-a]pyrrolo[2,3-e]pyridine-2-carboxamide] | 13
15 | 350 | Cc1nnc2c(Cc3ccc(F)cc3)cc3c(n12)C(C)(C)CN3C(=O)CN1C[C@@H](C)NC[C@@H]1CN1CCOC[C@H]1C [Example 10, 1-(4-(4-fluorobenzyl)-1,8,8-trimethyl-7,8-dihydro-6H-pyrrolo[2,3-e][1,2,4]triazolo[4,3-a]pyridin-6-yl)-2-((2R,5R)-5-methyl-2-(((R)-3-methylmorpholino)methyl)piperazin-1-yl)ethan-1-one] | 27
16 | 70 | CC(C)NC(=O)c1nc2c(Cc3ccc(F)cc3)cc3c(n2n1)C(C)(C)CN3C(=O)CN1C[C@@H](C)NC[C@@H]1CN1CCOC[C@H]1C [Compound 256, 4-(4-fluorobenzyl)-N-isopropyl-8,8-dimethyl-6-(2-((2R,5R)-5-methyl-2-(((R)-3-methylmorpholino)methyl)piperazin-1-yl)acetyl)-7,8-dihydro-6H-pyrrolo[2,3-e][1,2,4]triazolo[1,5-a]pyridine-2-carboxamide] | 8.9
17 | 21 | C[C@@H]1CN(CC(=O)N2CC(C)(C)c3c2cc(Cc2ccc(F)cc2)c2nc(C4CC4)nn32)[C@@H](CN2CCOC[C@H]2C)CN1 [Compound 165, 1-(2-cyclopropyl-4-(4-fluorobenzyl)-8,8-dimethyl-7,8-dihydro-6H-pyrrolo[2,3-e][1,2,4]triazolo[1,5-a]pyridin-6-yl)-2-((2R,5R)-5-methyl-2-(((R)-3-methylmorpholino)methyl)piperazin-1-yl)ethan-1-one] | 4
18 | 120 | CC(=O)c1nc2c(Cc3ccc(F)cc3)cc3c(n2n1)C(C)(C)CN3C(=O)CN1C[C@@H](C)NC[C@@H]1CN1CCOC[C@H]1C [Compound 224, 1-(2-acetyl-4-(4-fluorobenzyl)-8,8-dimethyl-7,8-dihydro-6H-pyrrolo[2,3-e][1,2,4]triazolo[1,5-a]pyridin-6-yl)-2-((2R,5R)-5-methyl-2-(((R)-3-methylmorpholino)methyl)piperazin-1-yl)ethan-1-one] | 2
19 | 170 | CC(C)c1nnc2c(Cc3ccc(F)cc3)cc3c(n12)C(C)(C)CN3C(=O)CN1C[C@@H](C)NC[C@@H]1CN1CCOC[C@H]1C [Example 11, 1-(4-(4-fluorobenzyl)-1-isopropyl-8,8-dimethyl-7,8-dihydro-6H-pyrrolo[2,3-e][1,2,4]triazolo[4,3-a]pyridin-6-yl)-2-((2R,5R)-5-methyl-2-(((R)-3-methylmorpholino)methyl)piperazin-1-yl)ethan-1-one] | 10
